Measurements as given in publication PMC6178619, “Arylvinylpiperazine Amides, a New Class of Potent Inhibitors Targeting QcrB of Mycobacterium tuberculosis” (mBio, 2018).

Experiments:
Type in all cases: cell-based, Mycobacterium tuberculosis
[1] = test system: LPZS-resistant strain of M. tuberculosis H37Rv (QcrB L176P)
[2] = test system: AX-resistant mutants of M. tuberculosis H37Rv
[3] = test system: Q203-resistant strain of M. tuberculosis H37Rv (QcrB T313A)
[4] = test system: AX-resistant mutants of M. tuberculosis H37Rv (QcrB S182P, M342V, M342I)
[5] = test system: H37Rv Δcyd KO with a QcrB(A317V) mutation

Row | SMILES | Cross-resistance [1] | Intracellular ATP level [2] | Cross-resistance [3] | Increase in MIC compared to parental strain H37Rv [4] [fold] | OCR change from basal on compound addition [5]
1 | O=C(/C=C/c1cccs1)N1CCN(Cc2ccc3c(c2)OCO3)CC1 [AX-35, (E)-1-(4-(Benzo[d][1,3]dioxol-5-ylmethyl)piperazin-1-yl)-3-(thiophen-2-yl)prop-2-en-1-one] | cross-resistant | essentially unaffected | cross-resistant | 50 | decreases
2 | O=C(/C=C/c1ccsc1)N1CCN(Cc2ccc3c(c2)OCO3)CC1 [AX-36, (E)-1-(4-(Benzo[d][1,3]dioxol-5-ylmethyl)piperazin-1-yl)-3-(thiophen-3-yl)prop-2-en-1-one] | cross-resistant | essentially unaffected | cross-resistant | 50 | 
3 | COc1nc2ccc(Br)cc2cc1[C@@H](c1ccccc1)[C@@](O)(CCN(C)C)c1cccc2ccccc12 [BDQ, bedaquiline, reference compound] |  | depleted |  |  | 
4 | CCc1nc2ccc(Cl)cn2c1C(=O)NCc1ccc(N2CCC(c3ccc(OC(F)(F)F)cc3)CC2)cc1 [Compound Q203, reference compound] |  | depleted |  |  | unaffected
